Patent publication US9902681B2, “N-3 immunoresolvents: structures and actions” (THE BRIGHAM AND WOMEN'S HOSPITAL, INC., priority 2013, dated 2018)

What was measured:
[1] = system: neutrophil recruitment; assay: Zymosan peritonitis, neutrophil recruitment into the peritoneum; set-up: species or system mouse; conditions: administered in vivo (as mixtures, FIG. 5); result in words
Experimental: FIG. 5. n-3 DPA immunoresolvents display potent anti-inflammatory actions in vivo. The indicated n-3 DPA-derived product mixtures were administered by intravenous injection 10 min prior to the intraperitoneal administration of zymosan (0.1 mg, 500 μl PBS) to 6-8-week-old male FvB mice. At 4 h, peritoneal exudates were collected and the (a) number of infiltrated neutrophils was assessed by light microscopy and flow cytometry. Exudate levels for the pro-inflammatory mediators (b) IL6 and (c) MCP-1 were determined by cytokine array. The ratio of RvD1n-3 DPA to RvD2n-3 DPA was ˜3:1 (A), the ratio of MaR1n-3 DPA to MaR2n-3 DPA was ˜4:1 (B); the ratio of RvD5n-3 DPA to PD1n-3 DPA was ˜9:1 (C). Results are mean±SEM. n=4 mice per group (*P<0.05; vs. vehicle group). Results are mean±SEM. n=4. *P<0.05, **P<0.01 vs. zymosan mice.
It was then determined whether these novel structures carried bioactivity.
Zymosan (0.1 mg) was injected intraperitoneally (i.p.) in 1 ml of sterile saline. Exudates were collected at 0, 4, 12 and 24 h post zymosan. Leukocyte numbers and differential counts in the peritoneal exudates were determined as in^16. In designated experiments, mice were administered intravenously (i.v): Vehicle (saline containing 0.1% EtOH), or the indicated mixture of n-3 DPA-derived products at 100 ng/mouse 5 min prior to i.p. zymosan administration (0.1 mg). After 4 h the exudates were collected and the number of extravasated neutrophils determined using Turks solution and flow cytometry as above.

[2] = system: human neutrophils; assay: Neutrophil chemotaxis towards IL-8 (ChemoTx); assay type: cell-based; conditions: 1 nM, 15 min, 37° C.; IL-8 100 ng/ml, 90 min
Experimental: FIG. 7. Reduction in human neutrophil chemotaxis, neutrophil-endothelia cell adhesion and stimulation of macrophage phagocytosis by n-3 DPA-derived immunoresolvents. (a) Left panel: micrographs depict PKH26-labeled neutrophils adherent to WGA-Alexafluor® 488-labeled HUVEC stimulated with TNF-α (10 ng/ml, 4 h, 37° C., 0.1% FCS) with or without n-3 DPA resolvins (1 nM, 15 min, 37° C., pH7.45; ×40 magnification). Right panel: Fluorescently labeled human neutrophils were incubated with vehicle (0.1% EtOH in PBS) or n-3 DPA products. These were then added to TNF-α-stimulated HUVEC and incubated for 30 min (37° C.), non-adherent cells were washed and extent of neutrophil adhesion assessed using a SpectraMax M3 Plate reader. […] After 60 min (37° C., pH7.45), the incubation was stopped, extracellular fluorescence quenched using trypan blue and phagocytosis assessed using a SpectraMax M3 Plate reader. […]
Peripheral blood neutrophils were obtained from healthy volunteers as in^17. […] 2.5×10^4 cells were then added to the upper chamber of the ChemoTx System (3 μm pore size filter) and chemotaxis towards IL8 (100 ng/ml) was assessed (90 min, 37° C., 5% CO2). The number of cells migrated into the bottom chamber was determined using Alama Blue following manufacturer's instructions on a Spectra Max M3 microplate reader (Molecular Devices Inc., Sunnyvale, Calif.).

[3] = system: human neutrophils adhering to TNF-α activated endothelial cells (HUVEC); assay: Human neutrophil-endothelial cell adhesion; assay type: cell-based; conditions: 1 nM, 15 min, 37° C.; HUVEC stimulated with TNF-α 10 ng/ml, 4 h; vs vehicle
Experimental: (§1) FIG. 7. Reduction in human neutrophil chemotaxis, neutrophil-endothelia cell adhesion and stimulation of macrophage phagocytosis by n-3 DPA-derived immunoresolvents. (a) Left panel: micrographs depict PKH26-labeled neutrophils adherent to WGA-Alexafluor® 488-labeled HUVEC stimulated with TNF-α (10 ng/ml, 4 h, 37° C., 0.1% FCS) with or without n-3 DPA resolvins (1 nM, 15 min, 37° C., pH7.45; ×40 magnification). Right panel: Fluorescently labeled human neutrophils were incubated with vehicle (0.1% EtOH in PBS) or n-3 DPA products. These were then added to TNF-α-stimulated HUVEC and incubated for 30 min (37° C.), non-adherent cells were washed and extent of neutrophil adhesion assessed using a SpectraMax M3 Plate reader. (b) Neutrophils were incubated with vehicle (0.1% EtOH in PBS) or n-3 DPA products (1 nM, 15 min, 37° C., pH7.45) prior to loading on ChemoTx chambers and assessing chemotaxis towards IL-8 (100 ng/ml, 90 min, 37° C., pH7.45). […] After 60 min (37° C., pH7.45), the incubation was stopped, extracellular fluorescence quenched using trypan blue and phagocytosis assessed using a SpectraMax M3 Plate reader. […]
HUVEC were purchased from Lonza and cultured to passage 4. […] The plates were then washed with DPBS to remove non-adherent cells and the number of adherent neutrophils assessed using a Spectra Max M3 microplate reader.

[4] = system: human monocyte-derived macrophages; assay: Macrophage phagocytosis of fluorescently labeled zymosan; assay type: cell-based; conditions: 1 nM, 15 min, 37° C.; then labeled zymosan 60 min
Experimental: as §1
Macrophages were prepared and phagocytosis was assessed as in^16. […] Phagocytosis was assessed using an M3 SpectraMax plate reader.

[5] = system: infiltrated leukocytes into the lungs / lung tissue damage; assay: Murine hind limb ischemia reperfusion, second organ (lung) injury: histology and lung MPO; assay type: in vivo, mouse; conditions: i.v. 10 min prior to reperfusion; RvD1 500 ng (FIG. 1) or 0.5 ng (Methods); result in words
Experimental: (a) Structures of DHA and n-3 DPA. (b) Ischemia was induced by applying tourniquets to the hind limb of 6-8-week-old male FvB mice. After 1 h, tourniquets were removed and reperfusion ensued for 3 h. 10 min prior to reperfusion, vehicle (saline containing 0.1% EtOH), RvD1 (500 ng) or a mixture of n-3 DPA-derived products (see Methods for details) were administered intravenously. At the end of reperfusion, lungs were collected; (c) tissue histology by H&E staining (×200) and (d) MPO levels were assessed. (e) Blood was collected, incubated with rat anti-mouse Ly6G and rat anti-mouse CD41 antibodies and neutrophil leukocyte aggregates were assessed by flow cytometry. (f) Plasma prostanoid and (g) leukotriene levels were assessed by lipid mediator metabololipidomics. Results are mean±SEM. n=4 mice per group. (*P<0.05; vs. vehicle group). Results c are representative n=4. Results d-e are mean±SEM. n=4. *P<0.05, **P<0.01 vs. vehicle mice. […]
Mice were anesthetized by intraperitoneal injection of a mixture of […]. […] The frozen lungs were homogenized from individual mice, centrifuged and the tissue myeloperoxidase (MPO) levels were determined using a mouse MPO ELISA (R&D Systems.).

SMILES | neutrophil infiltration in murine peritonitis [1] | other results
CC/C=C\C/C=C\CC(O)C(O)C=CC=C/C=C\CCCCCC(=O)O (stereo not shown) [MaR2n-3 DPA, 13,14-dihydroxy-7Z,9,11,16Z,19Z-docosapentaenoic acid] | reduced neutrophil infiltration | –
CC/C=C\C[C@H](O)[C@H](O)/C=C/C=C/C=C\C=C\[C@@H](O)C/C=C\CCC(=O)O [RvD2, 7S,16R,17S-trihydroxy-4Z,8E,10Z,12E,14E,19Z-docosahexaenoic acid] | – | reduction in neutrophil chemotaxis towards an IL-8 gradient [2]: ~42%; reduction in neutrophil adhesion to TNF-α activated endothelial cells [3]: ~30%; increase in macrophage phagocytosis (uptake) of zymosan [4]: ~50%
CC/C=C\C[C@H](O)/C=C/C=C\C/C=C\C=C\[C@@H](O)CCCCCC(=O)O [RvD5n-3 DPA, 7,17-trihydroxy-8E,10,13,15E,19Z-docosapentaenoic acid] | reduced neutrophil infiltration | –
CC/C=C\C[C@H](O)/C=C/C=C\C=C\C=C\[C@@H](O)[C@@H](O)C/C=C\CCC(=O)O [RvD1, 7S,8R,17S-trihydroxy-4Z,9E,11E,13Z,15E,19Z-docosahexaenoic acid] | – | protection from secondary organ injury (lung tissue damage, infiltrated leukocytes) [5]: protection
CC/C=C\CC(O)C(O)/C=C/C=CC=CC=CC(O)CCCCCC(=O)O (stereo not shown) [RvD2n-3 DPA, 7,16,17-trihydroxy-8,10,12,14E, 19Z-docosapentaenoic acid] | reduced neutrophil infiltration | –
CC/C=C\CC(O)C=CC=CC=CC(O)C/C=C\CCCCCC(=O)O (stereo not shown) [PD1n-3 DPA, 10,17-dihydroxy-7Z,11,13,15,19Z-docosapentaenoic acid] | reduced neutrophil infiltration | –
CC/C=C\CC(O)/C=C/C=CC=CC=CC(O)C(O)CCCCCC(=O)O (stereo not shown) [RvD1n-3 DPA, 7,8,17-trihydroxy-9,11,13,15E,19Z-docosapentaenoic acid] | reduced neutrophil infiltration | –
CC/C=C\C/C=C\CC(O)C=CC=CC=CC(O)CCCCCC(=O)O (stereo not shown) [MaR1n-3 DPA, 7,14-dihydroxy-8,10,12,16Z,19Z-docosapentaenoic acid] | reduced neutrophil infiltration | –
